Values of other authors as cited in patent US20050260283A1, “Composition for prevention and treatment of colon adenomas” (Medical Futures Inc., priority 2004, published 2005).

Key:
colorectal cancer = settings: regular aspirin use; epidemiological studies (Krishnan, 1997)
colorectal adenomas = settings: calcium supplementation; volunteers with a history of colorectal adenomas (Baron, 1999)

## CC(=O)Oc1ccccc1C(=O)O [aspirin]
Colorectal cancer
  reduction in the incidence of colorectal cancer: 40-50%

## O=C([O-])[O-].[Ca+2] [calcium carbonate]
Colorectal adenomas
  risk of recurrent colorectal adenomas: moderate but significant reduction
